Test results as given in patent publication US5736380A, “Maltose-trehalose converting enzyme, and preparation and uses thereof” (Kabushiki Kaisha Hayashibara Seibutsu Kagaku Kenkyujo, priority 1993, dated 1998).
“Also recorded” adds a separate entry of the source. Counter-ions that a name gives are not always drawn.

Experiments:
[1] = molecular target: T1, maltose-trehalose converting enzyme derived from Pimelobacter sp. R48 (Pimelobacter sp., UniProt P72235); test: Inhibition of enzyme activity; assay type: biochemical; conditions: one mM Cu^++ or Hg^++, 50 mM Tris-HCl buffer
T1 construct: The culture obtained in Experiment 1 was centrifuged to obtain an about 0.5 kg wet cells; endogenous in cells; host or cells: Pimelobacter sp; R48 (FERM BP-4315), enzyme purified from the disrupted wild-type cells
T1 sequence (P72235 1-573): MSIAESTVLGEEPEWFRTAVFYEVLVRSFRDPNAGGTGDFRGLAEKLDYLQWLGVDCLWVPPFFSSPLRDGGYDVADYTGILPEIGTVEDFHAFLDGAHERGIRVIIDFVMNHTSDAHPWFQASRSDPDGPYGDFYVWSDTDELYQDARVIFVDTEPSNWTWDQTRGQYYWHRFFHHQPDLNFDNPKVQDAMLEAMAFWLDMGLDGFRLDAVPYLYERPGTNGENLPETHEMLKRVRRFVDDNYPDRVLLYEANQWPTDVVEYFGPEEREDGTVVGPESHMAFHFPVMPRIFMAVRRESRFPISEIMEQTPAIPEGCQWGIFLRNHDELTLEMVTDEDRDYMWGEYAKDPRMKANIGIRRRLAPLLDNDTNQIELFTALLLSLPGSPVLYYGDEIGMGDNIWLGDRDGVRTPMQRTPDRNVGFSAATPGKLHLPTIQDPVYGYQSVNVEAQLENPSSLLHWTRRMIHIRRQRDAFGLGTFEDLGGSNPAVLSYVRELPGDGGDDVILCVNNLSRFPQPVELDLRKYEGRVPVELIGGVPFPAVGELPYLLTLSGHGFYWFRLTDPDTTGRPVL
Description: (§1) The activity of the present maltose-trehalose converting enzyme is assayed as follows: One ml of an enzyme solution is added to one ml of 20 w/v % maltose as a substrate in 10 mM phosphate buffer (pH 7.0), and the mixture solution is incubated at 25° C., 35° C. or 60° C. for 60 min, followed by the heating the solution at 100° C. for 10 min to suspend the enzymatic reaction. To the resultant reaction mixture is precisely diluted by 11-fold with 50 mM phosphate buffer (pH 7.5), and 0.4 ml of the diluted solution is admixed with 0.1 ml of a trehalase solution having one unit/ml of trehalase. The resultant solution is incubated at 45° C. for 120 min, followed by determining the amount of glucose by the glucose-oxidase method. As a control, by using trehalase and an enzyme solution, which were preheated at 100° C. for 10 min to inactivate the enzyme, the activity of the enzyme solution is assayed similarly as above. With the above assay, the content of trehalose, formed by the present maltose-trehalose converting enzyme, is determined based on the amount of glucose formed, and one unit activity of the enzyme is defined as the amount of enzyme which forms one μmole of trehalose per minute. As regards to the reaction temperature, it is set to 25° C. for the enzyme of a microorganism of the genus Pimelobacter; 35° C. for that of the genus Pseudomonas; and 60° C. for that of the genus Thermus.
Effects of temperature and pH on the activity of the present enzyme were studied in accordance with the method as used for assaying the enzyme activity. […] The thermal stability of the enzyme was determined by incubating it in 50 mM phosphate buffers (pH 7.0) in test tubes at different temperatures for 60 min, cooling the test tubes with cold water, and assaying the residual enzyme activity in each buffer. The pH stability of the enzyme was determined by incubating it in 50 mM phosphate buffers having different pHs at 20° C. for 60 min, adjusting the buffers to pH 7.0, and assaying the residual enzyme activity in each buffer.

[2] = molecular target: maltose-trehalose converting enzyme derived from Pseudomonas putida H262 (Pseudomonas putida, UniProt Q88FN0); test: Inhibition of enzyme activity; assay type: biochemical; conditions: one mM Cu^++ or Hg^++, 50 mM Tris-HCl buffer
Description: as §1, with “The resultant solution is incubated at 45° C. for 120 min, followed by determining the amount of glucose by the glucose-oxidase method.” left out, “With the above assay, the content of trehalose, formed by the present maltose-trehalose converting enzyme, is determined based on the amount of glucose formed, and one unit activity of the enzyme is defined as the amount of enzyme which forms one μmole of trehalose per minute.” left out
Effects of temperature and pH on the activity of the present enzyme were studied in accordance with the method as used for assaying the enzyme activity. The results were respectively shown in FIG. 5 (effect of temperature) and FIG. 6 (effect of pH). The optimum temperature of the enzyme was about […] when incubated at pH 7.0 for 60 min and the optimum pH was about 7.3-8.3 when incubated at 35° C. for 60 min. The thermal stability of the enzyme was determined by incubating it in containers with 50 mM phosphate buffers (pH 7.0) at different temperatures for 60 min, cooling the resultant buffers in the containers with cold water, and assaying the residual enzyme activity in each buffer. The pH stability of the enzyme was determined by incubating it in 50 mM phosphate buffers having different pHs at 35° C. for 60 min, adjusting the resultant buffers to pH 7.0, and assaying the residual enzyme activity in each buffer. The enzyme was stable up to a temperature of about 40° C. and stable at a pH of about 6.0-9.5. […]

maltose-trehalose converting enzyme derived from Pseudomonas putida H262, sequence (Q88FN0 entry or part of it): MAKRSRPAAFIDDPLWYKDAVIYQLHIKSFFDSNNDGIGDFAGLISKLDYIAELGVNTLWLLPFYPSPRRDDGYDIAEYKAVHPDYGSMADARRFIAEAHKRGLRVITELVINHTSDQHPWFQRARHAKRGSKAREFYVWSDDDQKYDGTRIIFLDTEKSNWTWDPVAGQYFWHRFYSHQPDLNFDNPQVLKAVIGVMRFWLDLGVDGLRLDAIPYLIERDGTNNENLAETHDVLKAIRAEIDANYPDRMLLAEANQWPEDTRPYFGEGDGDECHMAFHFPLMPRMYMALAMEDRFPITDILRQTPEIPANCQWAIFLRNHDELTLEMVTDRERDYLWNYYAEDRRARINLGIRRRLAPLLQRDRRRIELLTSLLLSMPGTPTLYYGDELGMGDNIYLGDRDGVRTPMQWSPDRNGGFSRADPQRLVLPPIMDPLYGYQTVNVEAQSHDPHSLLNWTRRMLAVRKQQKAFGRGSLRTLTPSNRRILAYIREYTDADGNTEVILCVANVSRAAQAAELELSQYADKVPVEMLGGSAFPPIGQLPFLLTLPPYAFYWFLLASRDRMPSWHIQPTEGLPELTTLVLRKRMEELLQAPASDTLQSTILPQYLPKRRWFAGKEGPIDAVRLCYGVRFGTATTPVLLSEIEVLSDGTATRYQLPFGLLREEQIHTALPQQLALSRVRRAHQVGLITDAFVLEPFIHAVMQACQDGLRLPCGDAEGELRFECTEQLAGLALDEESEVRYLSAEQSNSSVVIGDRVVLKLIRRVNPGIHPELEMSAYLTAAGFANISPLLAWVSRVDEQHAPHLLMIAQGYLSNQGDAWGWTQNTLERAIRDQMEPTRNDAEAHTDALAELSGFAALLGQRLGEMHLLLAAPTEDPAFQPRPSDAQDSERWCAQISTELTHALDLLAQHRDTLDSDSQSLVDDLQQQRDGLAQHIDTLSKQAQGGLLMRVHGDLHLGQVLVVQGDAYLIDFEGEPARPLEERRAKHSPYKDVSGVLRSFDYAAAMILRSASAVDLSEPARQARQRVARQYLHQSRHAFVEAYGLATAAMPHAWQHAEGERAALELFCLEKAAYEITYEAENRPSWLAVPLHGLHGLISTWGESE

**Q.** How did the Inhibition of activity [1] turn out when `[Cu+2]` [Cu^++] was run?
**A.** inhibited; also recorded: inhibitory

**Q.** And the Inhibition of activity [2]?
**A.** inhibited; also recorded: inhibitory

**Q.** For `[Hg+2]` [Hg^++], which Inhibition of activity [1] is on record?
**A.** inhibited; also recorded: inhibitory

**Q.** What about the Inhibition of activity [2] of the same compound?
**A.** inhibited; also recorded: inhibitory

**Q.** Which results are given for `NC(CO)(CO)CO` [Tris-HCl buffer]?
**A.** Inhibition of activity [1]: inhibited; also recorded: inhibitory; Inhibition of activity [2]: inhibited; also recorded: inhibitory
